Laboratory results from patent publication US20240067693A1, “POLYPEPTIDES AND USES THEREOF” (MEDIMMUNE LIMITED, priority 2020, published 2024).
Numbered stars: 1 amine (or outer) side, 2 acyl side, 3 side chain; on linkers, the order of the positions; unused ones are H or OH. Bridge positions count the residues as written; N and C are the ends. Square brackets hold non-standard residues; d marks the D form. Side chains are listed from the residue outwards. Peptide text beside a SMILES is read from it. * marks the point of attachment. C18 diacid = O=C(O)CCCCCCCCCCCCCCCCC(=O)*; γGlu = O=C(O)[C@H](CCC(=O)[*:2])N[*:1]; Aib = CC(C)(N)C(=O)O

Legend:
[1] = target: T1, rat amylin receptor (calcitonin receptor co-expressed with receptor activity modifying protein, RAMP3) (Rat AMYR3) (Rattus norvegicus, UniProt P32214+Q9JJ73); assay: cAMP production in HEK cells with stable recombinant expression of rat amylin receptor (Rat AMYR3); assay type: cell-based; settings: assay buffer with 0.1% BSA
T1 construct: expressed in transfected cells
T1 sequence (P32214 25-516): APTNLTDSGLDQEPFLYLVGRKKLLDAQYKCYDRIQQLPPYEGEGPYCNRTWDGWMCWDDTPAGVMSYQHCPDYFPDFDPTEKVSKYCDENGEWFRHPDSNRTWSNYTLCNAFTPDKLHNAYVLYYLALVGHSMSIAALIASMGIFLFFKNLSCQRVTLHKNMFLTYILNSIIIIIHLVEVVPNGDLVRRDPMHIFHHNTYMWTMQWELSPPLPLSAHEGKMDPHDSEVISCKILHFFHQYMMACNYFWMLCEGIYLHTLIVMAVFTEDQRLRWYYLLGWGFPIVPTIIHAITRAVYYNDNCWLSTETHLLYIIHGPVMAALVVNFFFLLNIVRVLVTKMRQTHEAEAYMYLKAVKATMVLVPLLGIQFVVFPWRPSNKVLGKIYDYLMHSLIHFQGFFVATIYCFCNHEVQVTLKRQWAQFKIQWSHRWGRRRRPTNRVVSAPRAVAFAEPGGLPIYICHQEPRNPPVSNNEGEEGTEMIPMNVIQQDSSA
T1 sequence (Q9JJ73 23-147 partner): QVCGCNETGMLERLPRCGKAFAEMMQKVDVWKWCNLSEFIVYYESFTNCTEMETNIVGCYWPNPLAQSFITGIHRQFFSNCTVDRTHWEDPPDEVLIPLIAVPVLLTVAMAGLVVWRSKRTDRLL
Description: (§1) The functional activities of lipidated pramlintide analogue peptides, such as cAMP production, were tested in 1321N1 cell line with stable recombinant expression of human calcitonin receptor (hCTR) or human amylin receptor (calcitonin receptor co-expressed with receptor activity modifying protein, RAMP3) (hAMYR3) or HEK cells with stable recombinant expression of rat calcitonin receptor (rat CTR) or rat amylin receptor (calcitonin receptor co-expressed with receptor activity modifying protein, RAMP3) (Rat AMYR3).
(§2) Cryopreserved cell stock was thawed rapidly in a water-bath, suspended in assay buffer (0.1% BSA (Sigma # A3059) in HBSS (Sigma # H8264) with 25 mM HEPES, pH 7.4 and containing 0.5 mM IB MX (Sigma# 17018)) and spun at 240×g for 5 minutes. Cells were re-suspended in assay buffer at a batch-dependent optimized concentration (e.g. hCTR cells at 0.125×10^5 cells/mL, hAMYR3 cells at 0.125×10^5 cells/mL, rat CTR cells at 1x10^5 cells/mL, rat AMYR3 at 2×10^5 cells/mL).
(§3) The test peptide stock was prepared in DMSO and diluted in assay buffer to reach stated concentrations and transferred in duplicates into a 384-black shallow well microtitre assay plate (Corning # 3676). Cells were added to the assay plate, incubated at room temperature for 30 minutes and the cAMP level measured using cAMP dynamic 2 HTRF kit (Cisbio, Cat # 62AM4PEJ), following the two step protocol as per manufacturer's recommendations. The plates were read on an Envision (Perkin Elmer) using excitation wavelength of 320 nm and emission wavelengths of 620nm & 665 nm.
(§4) Data was transformed to % Delta F as described in the manufacturer's guidelines and analyzed as percent activation of maximal amylin or calcitonin effect by 4-parameter logistic fit to determine EC50 values. The selectivity of a peptide to hAMYR vs hCTR is defined as a ratio of EC50 values at the two receptors.

[2] = target: T2, human calcitonin receptor (hCTR) (Homo sapiens, UniProt P30988); assay: cAMP production in 1321N1 cells with stable recombinant expression of human calcitonin receptor (hCTR); assay type: cell-based; settings: cAMP, 1321N1 cells, assay buffer with 0.1% BSA; read-out: EC50 (pM) hCTR
T2 construct: expressed in transfected cells
T2 sequence (P30988 25-474): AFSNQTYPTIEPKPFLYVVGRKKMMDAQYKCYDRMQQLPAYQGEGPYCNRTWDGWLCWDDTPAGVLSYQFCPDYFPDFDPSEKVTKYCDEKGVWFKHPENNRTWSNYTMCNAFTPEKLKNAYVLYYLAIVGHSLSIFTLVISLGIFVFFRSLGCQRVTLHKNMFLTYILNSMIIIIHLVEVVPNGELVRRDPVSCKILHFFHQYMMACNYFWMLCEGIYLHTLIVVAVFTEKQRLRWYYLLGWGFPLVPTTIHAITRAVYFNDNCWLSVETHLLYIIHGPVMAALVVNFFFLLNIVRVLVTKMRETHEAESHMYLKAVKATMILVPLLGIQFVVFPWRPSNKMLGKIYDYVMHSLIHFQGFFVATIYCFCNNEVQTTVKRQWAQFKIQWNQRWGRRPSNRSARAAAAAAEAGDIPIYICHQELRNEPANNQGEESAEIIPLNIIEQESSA
Procedure, shortened: (§5)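 Receptor-expressing cells (human receptors in 1321N1, rat receptors in HEK) incubated 30 min at room temperature with peptide in HBSS/HEPES pH 7.4, 0.1% BSA, 0.5 mM IBMX. cAMP read by HTRF; EC50 from 4-parameter fit as % of maximal amylin or calcitonin response.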

[3] = target: T3, rat calcitonin receptor (rat CTR) (Rattus norvegicus, UniProt P32214); assay: cAMP production in HEK cells with stable recombinant expression of rat calcitonin receptor (rat CTR); assay type: cell-based; settings: assay buffer with 0.1% BSA
T3 construct: expressed in transfected cells
T3 sequence (P32214 25-516): T1 sequence (P32214 25-516)
Description: as §1, §2, §3, §4

[4] = target: T4, human amylin receptor (calcitonin receptor co-expressed with receptor activity modifying protein, RAMP3) (hAMYR3) (Homo sapiens, UniProt O60896+P30988); assay: cAMP production in 1321N1 cells with stable recombinant expression of human amylin receptor (hAMYR3); assay type: cell-based; settings: for Ratio (selectivity hAMYR vs hCTR, ratio of EC50 values at the two receptors): EC50 hCTR / EC50 hAMYR3; for EC50: cAMP, 1321N1 cells, assay buffer with 0.1% BSA, read-out: EC50 (pM) hAMYR3
T4 construct: expressed in transfected cells
T4 sequence (P30988 25-474): T2 sequence (P30988 25-474)
T4 sequence (O60896 24-148 partner): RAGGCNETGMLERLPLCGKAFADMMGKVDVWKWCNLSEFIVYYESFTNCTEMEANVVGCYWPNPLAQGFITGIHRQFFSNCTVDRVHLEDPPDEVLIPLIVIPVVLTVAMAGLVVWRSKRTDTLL
Procedure, shortened: as §5

[5] = Pharmacokinetic determination via IV and SC administration in Sprague Dawley rats; settings: male, rat, plasma, 20 nmol/kg
[6] = tested on: lean rats; assay: Rat acute food intake study; assay type: in vivo; settings: lean male Sprague Dawley rats, 20 nmol/kg subcutaneously
Description: Male Sprague Dawley rats were obtained from Taconic Denmark, ApS at approximately 7 weeks of age. Rats were implanted with a microchip for identification, housed 4/cage with enrichment, free access to food and water, and allowed one week acclimatisation while non-invasive characterization was performed. Rats were on a 12:12 light:dark cycle that switches at 1pm:1am. Food intake was monitored via the HM2 system (Lafayette Instrument) that allows for monitoring in a home cage. As each rat enters an access tunnel to feed, an IR beam is broken, and the implanted microchip is read. Resulting changes to food weight is then assigned to the specific animal. Social order has shown no impact to overall feeding patterns and amounts.
Rats were sorted into groups based on Day -1 body weight and 24-hour accumulated food intake (n=7 per group). On Day 0 rats were weighed, then fasted for 6 hours. Thirty (30) minutes prior to the reintroduction of food, rats were dosed subcutaneously (5 mL/kg) with 20 nmol/kg of test compound or 60 nmol/kg peptide 1 (pramlintide) diluted in an appropriate vehicle, after which food was returned, and lights went out. Automated food intake was monitored for the following 3 days, and rats were weighed once per day.
Food intake per rat was batched into 1-hour intervals and integrated into Gubra's GubraView data management system. Discrete food intake data was exported into MS Excel from which cumulative food intake data was generated. Cumulative food intake data was then transposed into GraphPad Prism (v8.0.1) for analysis of dark period feeding

## CC[C@H](C)[C@H](NC(=O)[C@@H]1CCCN1C(=O)CNC(=O)[C@H](Cc1ccccc1)NC(=O)[C@H](CC(N)=O)NC(=O)C(C)(C)NC(=O)[C@H](CO)NC(=O)[C@H](CO)NC(=O)[C@H](Cc1c[nH]cn1)NC(=O)[C@H](CCCNC(=N)N)NC(=O)[C@H](CC(C)C)NC(=O)[C@H](Cc1ccccc1)NC(=O)[C@H](CC(N)=O)NC(=O)[C@H](C)NC(=O)[C@H](CC(C)C)NC(=O)[C@H](CCCNC(=N)N)NC(=O)[C@H](CCC(N)=O)NC(=O)[C@@H](NC(=O)[C@H](C)NC(=O)[C@@H]1CSSC[C@H](NC(=O)[C@H](CCCCN)NC(=O)[C@@H](N)CCCCNC(=O)CC[C@H](NC(=O)CCCCCCCCCCCCCCCCC(=O)O)C(=O)O)C(=O)N[C@@H](CC(N)=O)C(=O)N[C@@H]([C@@H](C)O)C(=O)N[C@@H](C)C(=O)N[C@@H]([C@@H](C)O)C(=O)N1)[C@@H](C)O)C(=O)N[C@@H](CC(C)C)C(=O)N1CCC[C@H]1C(=O)N1CCC[C@H]1C(=O)N[C@H](C(=O)N[C@@H](CCC(=O)O)C(=O)N[C@H](C(=O)NCC(=O)N[C@@H](CO)C(=O)N[C@@H](CC(N)=O)C(=O)N[C@H](C(=O)N[C@@H](Cc1ccc(O)cc1)C(N)=O)[C@@H](C)O)C(C)C)[C@@H](C)O [Peptide 43, K(γE-C18diacid)K[CNTATC]ATQRLANFLRHSS(Aib)NFGPILPPTEVGSNTY-amide] (H-K([γGlu-C18 diacid])KCNTATCATQRLANFLRHSS[Aib]NFGPILPPTEVGSNTY-NH2; disulfide 3-8; N-terminus assumed)
[1]
  EC50: 14.5 pM
[2]
  EC50: 19000 pM
[3]
  EC50: 3650 pM
[4]
  Ratio (selectivity hAMYR vs hCTR, ratio of EC50 values at the two receptors): 29
  EC50: 647 pM
[5]; iv
  half-life: 9.3 h
[5]; sc
  half-life: 10 h
[6]
  Cummulative food intake (% vehicle treated intake) At 12 h: 60.8 % vehicle treated intake
  Cummulative food intake (% vehicle treated intake) At 24 h: 55.6 % vehicle treated intake
  Cummulative food intake (% vehicle treated intake) At 48 h: 46.6 % vehicle treated intake

## CC[C@H](C)[C@H](NC(=O)[C@@H]1CCCN1C(=O)CNC(=O)[C@H](Cc1ccccc1)NC(=O)[C@H](CC(N)=O)NC(=O)[C@H](CC(N)=O)NC(=O)[C@H](CO)NC(=O)[C@H](CO)NC(=O)[C@H](Cc1c[nH]cn1)NC(=O)C(C)(C)NC(=O)[C@H](CC(C)C)NC(=O)[C@H](Cc1ccccc1)NC(=O)[C@H](CC(N)=O)NC(=O)[C@H](C)NC(=O)[C@H](CC(C)C)NC(=O)[C@H](CCCNC(=N)N)NC(=O)[C@H](CCC(N)=O)NC(=O)[C@@H](NC(=O)[C@H](C)NC(=O)[C@@H]1CSSC[C@H](NC(=O)[C@H](CCCCN)NC(=O)[C@@H](N)CCCCNC(=O)CC[C@H](NC(=O)CCCCCCCCCCCCCCCCC(=O)O)C(=O)O)C(=O)N[C@@H](CC(N)=O)C(=O)N[C@@H]([C@@H](C)O)C(=O)N[C@@H](C)C(=O)N[C@@H]([C@@H](C)O)C(=O)N1)[C@@H](C)O)C(=O)N[C@@H](CC(C)C)C(=O)N1CCC[C@H]1C(=O)N1CCC[C@H]1C(=O)N[C@H](C(=O)N[C@@H](CCC(=O)O)C(=O)N[C@H](C(=O)NCC(=O)N[C@@H](CO)C(=O)N[C@@H](CC(N)=O)C(=O)N[C@H](C(=O)N[C@@H](Cc1ccc(O)cc1)C(N)=O)[C@@H](C)O)C(C)C)[C@@H](C)O [Peptide 140] (H-K([γGlu-C18 diacid])KCNTATCATQRLANFL[Aib]HSSNNFGPILPPTEVGSNTY-NH2; disulfide 3-8; N-terminus assumed)
[1]
  EC50: 19.5 pM
[2]
  EC50: 6050 pM
[3]
  EC50: 1220 pM
[4]
  Ratio (selectivity hAMYR vs hCTR, ratio of EC50 values at the two receptors): 9.2
  EC50: 656 pM
[5]; iv
  half-life: 10.6 h
[5]; sc
  half-life: 12.9 h
[6]
  Cummulative food intake (% vehicle treated intake) At 12 h: 62.4 % vehicle treated intake
  Cummulative food intake (% vehicle treated intake) At 24 h: 54.4 % vehicle treated intake
  Cummulative food intake (% vehicle treated intake) At 48 h: 56.5 % vehicle treated intake
